Consider nine compounds from ChEMBL document CHEMBL4364244, “New insights into the biological activities of Chrysanthemum morifolium: Natural flavonoids alleviate diabetes by targeting α-glucosidase and the PTP-1B signaling pathway” (Eur J Med Chem, 2019).

Active and inactive are the calls of the source. The calls are words filed in the database; no cut-off is given here.

A word on the inhibition: it is the share of the control response that was lost under treatment. As a reminder, the IC50 is the concentration needed to halve the response being measured. High values mean a need for much substance, low ones inhibition by little substance. For orientation: inhibition in vivo means the percentage by which the read-out fell short of the control.

For assay [1], the species on record is Cricetulus griseus. Briefly: Inhibition of PTP1B in CHOK1 cells assessed as increase in phosphorylation of AKT at Ser473 residue at 20 uM measured after 48 hrs by Western blot analysis. It is filed as cell-based.
Assay [2] concerns the target T1, Tyrosine-protein phosphatase non-receptor type 1 (Homo sapiens) (UniProt P18031).
T1 sequence (whole entry): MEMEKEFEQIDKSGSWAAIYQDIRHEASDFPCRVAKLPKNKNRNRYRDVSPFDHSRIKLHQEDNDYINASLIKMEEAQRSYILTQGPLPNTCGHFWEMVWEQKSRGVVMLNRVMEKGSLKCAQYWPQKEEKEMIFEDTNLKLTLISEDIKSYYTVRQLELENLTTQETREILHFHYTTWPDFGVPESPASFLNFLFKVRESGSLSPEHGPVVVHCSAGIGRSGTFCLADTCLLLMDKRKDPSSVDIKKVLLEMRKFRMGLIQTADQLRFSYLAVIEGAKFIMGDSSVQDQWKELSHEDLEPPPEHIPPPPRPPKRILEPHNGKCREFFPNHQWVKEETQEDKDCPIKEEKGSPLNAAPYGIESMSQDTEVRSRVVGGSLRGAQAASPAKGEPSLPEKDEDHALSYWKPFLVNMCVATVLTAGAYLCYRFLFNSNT
Put plainly: Inhibition of human recombinant full length PTP1B expressed in Escherichia coli cells at 5 uM using pNPP as substrate preincubated with enzyme for 5 mins followed by incubation with substrate for 10 mins by spectrophotometry analysis relative to control.

Assay [3] has as its target T1, Tyrosine-protein phosphatase non-receptor type 1 (Homo sapiens). Briefly: Inhibition of human recombinant full length PTP1B expressed in Escherichia coli cells at 1 uM using pNPP as substrate preincubated with enzyme for 5 mins followed by incubation with substrate for 10 mins by spectrophotometry analysis relative to control.
The subject of the next assay is CHO-K1. Put plainly: Decrease in PTP1B protein expression in CHOK1 cells at 20 uM measured after 48 hrs by Western blot analysis. It is filed as functional, cell-based. The conditions noted are these: Cricetulus griseus.
Assay [4] is filed under the species Cricetulus griseus. Put plainly: Inhibition of PTP1B in CHOK1 cells assessed as increase in phosphorylation of GSK-3beta at Ser9 residue at 20 uM measured after 48 hrs by Western blot analysis. Format: cell-based. For orientation: In western blotting, separated proteins are transferred to a membrane and probed.
For assay [5], the target named is T1, Tyrosine-protein phosphatase non-receptor type 1 (Homo sapiens). Briefly: Inhibition of human recombinant full length PTP1B expressed in Escherichia coli cells at 10 uM using pNPP as substrate preincubated with enzyme for 5 mins followed by incubation with substrate for 10 mins by spectrophotometry analysis relative to control.
Assay [6] can be described thus: Inhibition of baker's yeast alpha-glucosidase using p-nitrophenyl alpha-D-glucopyranoside as substrate measured after 30 mins by spectrophotometry analysis. Also on record: species or system Saccharomyces cerevisiae.
For assay [7], the system named is HepG2. Briefly: Increase in glucose consumption in human HepG2 cells assessed as glucose concentration in the medium treated at 0.4 to 10 uM after incubating cells in the medium containing glucose measured after 24 hrs by glucose oxidase method. It is filed as functional, cell-based.
Assay [8] concerns Mus musculus. Briefly: Antidiabetic activity in STZ-induced type-2 diabetes Kunming mouse model assessed as decrease in postprandial glucose level at 50 mg/kg, po for 2 hrs by glucometer analysis. Format: functional, organism-based.
Assay [9] concerns Mus musculus. Briefly: Antidiabetic activity in STZ-induced type-2 diabetes Kunming mouse model assessed as decrease in blood glucose AUC at 50 to 100 mg/kg, po administered for 4 weeks by glucometric analysis. Format: functional, organism-based.
Assay [10] relates to Mus musculus. Put plainly: Antihyperlipidemic activity in STZ-induced type-2 diabetes Kunming mouse model assessed as decrease in serum triglyceride level at 100 mg/kg, po for 4 weeks relative to diabetic control. It is filed as functional. The conditions noted are these: 672 h.
For assay [11], the system named is Mus musculus. Briefly: Antihyperlipidemic activity in STZ-induced type-2 diabetes Kunming mouse model assessed as serum total cholesterol level at 50 mg/kg, po for 4 weeks (reference value: 9.75 +/-0.11 mM). It is filed as functional.
Assay [12] relates to Mus musculus. Briefly: Antidiabetic activity in STZ-induced type-2 diabetes Kunming mouse model assessed as increase in glucose tolerance at 50 to 100 mg/kg, po for 13 days followed by overnight fasting and later orally treated with glucose for 60 mins and measured after 120 mins by OGTT. Format: functional, organism-based.
For assay [13], the system named is INS1. Briefly: Increase in insulin secretion in high glucose-treated rat INS-1 cells preincubated with compound and 40 mM glucose for 48 hrs followed by stimulation with KRB buffer containing 5 to 30 mM glucose for 60 mins and measured by ELISA. It is filed as functional, cell-based. Background: ELISA stands for enzyme-linked immunosorbent assay.
For assay [14], the system named is Mus musculus. Briefly: Antidiabetic activity in STZ-induced type-2 diabetes Kunming mouse model assessed as decrease in blood glucose AUC at 50 mg/kg, po for 14 days followed by overnight fasting and later orally treated with maltose for 60 mins and measured after 120 mins by OMTT. It is filed as functional.
For assay [15], the system named is Mus musculus. Briefly: Antihyperlipidemic activity in STZ-induced type-2 diabetes Kunming mouse model assessed as serum triglyceride level at 50 mg/kg, po for 4 weeks (reference value: 3.08 +/- 0.84 mM). It is filed as functional.
Assay [16] deals with Mus musculus. Put plainly: Antidiabetic activity in STZ-induced type-2 diabetes Kunming mouse model assessed as decrease in blood glucose AUC at 100 mg/kg, po for 14 days followed by overnight fasting and later orally treated with maltose for 60 mins and measured after 120 mins by OMTT. Format: functional.
Assay [17] concerns Mus musculus. Briefly: Antihyperlipidemic activity in STZ-induced type-2 diabetes Kunming mouse model assessed as decrease in serum total cholesterol level at 100 mg/kg, po for 4 weeks relative to diabetic control. Format: functional. The conditions noted are these: 672 h.
The test system of assay [18] is Mus musculus. Put plainly: Antidiabetic activity in STZ-induced type-2 diabetes Kunming mouse model assessed as decrease in fasting blood glucose level at 50 to 100 mg/kg, po administered for 4 weeks by glucometric analysis. Format: functional, organism-based.
In assay [19] the test system is Mus musculus. Briefly: Antihyperlipidemic activity in STZ-induced type-2 diabetes Kunming mouse model assessed as decrease in serum triglyceride level at 50 mg/kg, po for 4 weeks relative to diabetic control. It is filed as functional. The conditions noted are these: 672 h.
Assay [20] concerns Mus musculus. Put plainly: Antihyperlipidemic activity in STZ-induced type-2 diabetes Kunming mouse model assessed as serum triglyceride level at 100 mg/kg, po for 4 weeks (reference value: 3.08 +/- 0.84 mM). It is filed as functional.
Assay [21] relates to Mus musculus. Put plainly: Antihyperlipidemic activity in STZ-induced type-2 diabetes Kunming mouse model assessed as serum total cholesterol level at 100 mg/kg, po for 4 weeks (reference value: 9.75 +/-0.11 mM). Format: functional.
The test system of assay [22] is INS1. Put plainly: Increase in insulin secretion in high glucose-treated rat INS-1 cells at 0.15 uM preincubated with compound and 40 mM glucose for 48 hrs followed by stimulation with KRB buffer containing 5 to 30 mM glucose for 60 mins and measured by ELISA. Format: functional, cell-based.
For assay [23], the system named is HepG2. Briefly: Increase in glucose consumption in human HepG2 cells assessed as glucose concentration in the medium treated at 500 uM after incubating cells in the medium containing glucose measured after 24 hrs by glucose oxidase method. It is filed as functional, cell-based.
The subject of assay [24] is Mus musculus. Put plainly: Antihyperlipidemic activity in STZ-induced type-2 diabetes Kunming mouse model assessed as decrease in serum total cholesterol level at 50 mg/kg, po for 4 weeks relative to diabetic control. The conditions noted are these: 672 h. It is filed as functional.

`COc1ccc(-c2cc(=O)c3c(O)cc(O)cc3o2)cc1` [ACACETIN]: the outcome in the assay listed under Cricetulus griseus [1], in the assay listed under Cricetulus griseus [4] and with HepG2 [7] was Active. For the same compound, the inhibition in assay [2] is 36.3%; in assay [3], 38.2%; in assay [5] it was 32%. The inhibition result with CHO-K1 is “Active”. The compound further showed an IC50 in [6] of more than 100 µM.
Consider `COc1ccc(-c2cc(=O)c3c(O)cc(O[C@@H]4O[C@H](CO[C@@H]5O[C@@H](C)[C@H](O)[C@@H](O)[C@H]5O)[C@@H](O)[C@H](O)[C@H]4O)cc3o2)cc1O` [DIOSMIN], for which the inhibition entry with Mus musculus [8], in the assay on Mus musculus [9], in the assay with CHO-K1 and with Mus musculus [18] was “Active” each time. Besides, the result in the assay listed under Cricetulus griseus [1], in the assay with Mus musculus [12], in the assay listed under Cricetulus griseus [4] and in the assay on HepG2 [7] was Active. The inhibition in vivo at 100 mg/kg in the assay on Mus musculus [10] was found to be 27.3%; in the assay with Mus musculus [16] it was 13.5%; in the assay with Mus musculus [17], 8.3%. Besides, the inhibition in assay [2] was 32.8%; in assay [3], 36.3%; in assay [5] it was 30.5%. Further, the Activity was 9.18 mM in the assay with Mus musculus [11]; “Dose-dependent effect” in the assay with INS1 [13]; 2.04 mM with Mus musculus [15]; 2.24 mM with Mus musculus [20]; 8.94 mM in the assay with Mus musculus [21]. The inhibition in vivo at 50 mg/kg was 11.2% with Mus musculus [14] and 33.8% in the assay on Mus musculus [19]. Also, the IC50 in assay [6] was more than 100 µM.
Take `COc1ccc(Cl)cc1C(=O)NCCc1ccc(S(=O)(=O)NC(=O)NC2CCCCC2)cc1`: the outcome in the assay on INS1 [22] was Active.
With `COc1ccc(-c2cc(=O)c3c(O)cc(O)cc3o2)cc1O`, the result in the assay filed under Cricetulus griseus [1], in the assay filed under Cricetulus griseus [4] and in the assay with HepG2 [7] was Active. Moreover, the inhibition is 27.1% in [2], 22.8% in assay [3] and 28.3% in assay [5]. In addition, the inhibition entry in the assay on CHO-K1 was “Active”.
`C[C@H]1O[C@H](O[C@H]2[C@H](O)[C@@H](O)[C@@H](O[C@H]3[C@H](O)[C@@H](O)C(O)O[C@@H]3CO)O[C@@H]2CO)[C@H](O)[C@@H](O)[C@@H]1N[C@H]1C=C(CO)[C@@H](O)[C@H](O)[C@H]1O` (some centres not stated) [ACARBOSE]: the Activity in the assay with Mus musculus [11] came out at 9.61 mM; in the assay on Mus musculus [15] it was 3.02 mM. Also, the IC50 in assay [6] stood at 236 µM.
Consider `CN(C)C(=N)NC(=N)N`, for which the result in the assay with HepG2 [23] was Active.
Take `O=c1cc(-c2ccc(O)c(O)c2)oc2cc(O)cc(O)c12` [LUTEOLIN]: the result in the assay filed under Cricetulus griseus [1], in the assay filed under Cricetulus griseus [4] and in the assay on HepG2 [7] was Active. Besides, the inhibition in [2] was found to be 40.8%; in assay [3], 19.8%; in [5], 39.9%. In addition, the inhibition entry in the assay on CHO-K1 is “Active”. Further, the midpoint of inhibition in assay [6], the IC50, lay at 16.6 µM.
With `O=c1cc(-c2ccc(O)cc2)oc2cc(O)cc(O)c12` [APIGENIN], the inhibition result with Mus musculus [8], with Mus musculus [9], with CHO-K1 and with Mus musculus [18] was “Active” in each case. Also, the outcome in the assay listed under Cricetulus griseus [1], in the assay with Mus musculus [12], in the assay listed under Cricetulus griseus [4] and with HepG2 [7] was Active. Moreover, the inhibition in vivo at 50 mg/kg in the assay on Mus musculus [24] was found to be 22.1%. The inhibition in assay [2] was 20.2%; in assay [3], 29.8%; in assay [5], 39.2%. Also, the Activity in the assay with Mus musculus [11] is on record as 7.6 mM; in the assay with Mus musculus [15] it was 3.13 mM; with Mus musculus [20] it was 3.06 mM; in the assay on Mus musculus [21], 8.22 mM. Also, the inhibition in vivo at 100 mg/kg in the assay with Mus musculus [17] turned out to be 15.7%. In assay [6], this compound showed an IC50 of 9.04 µM.
Take `COc1ccc(-c2cc(=O)c3c(O)cc(O[C@@H]4O[C@H](CO)[C@@H](O)[C@H](O)[C@H]4O)cc3o2)cc1O`: the outcome in the assay filed under Cricetulus griseus [1], in the assay listed under Cricetulus griseus [4] and in the assay on HepG2 [7] was Active. Besides, the inhibition in [2] stood at 23.4%; in assay [3], 27.7%; in assay [5], 29.8%. In the assay on CHO-K1, the inhibition entry was “Active”. Moreover, the Activity entry in the assay with INS1 [13] is “Dose-dependent effect”. Also, the IC50 in [6] is more than 100 µM.
